Laboratory results: ChEMBL document CHEMBL5725614, “Histone demethylase inhibitors” (2018)

assay: FBXL11 Assay: The ability of test compounds to inhibit the activity of FBXL11 was determined in 384-well plate format under the following reaction conditions: 0.15 nM FBXL11, 30 nM H3K36me2-biotin labeled peptide (Anaspec cat #64442), 0.2 μM alpha-ketoglutaric acid in assay buffer of 50 mM HEPES, pH7.3, 0.005% Brij35, 0.5 mM TCEP, 0.2 mg/ml BSA, 50 μM sodium L-ascorbate, 5 μM ammonium iron(II) sulfate. Reaction product is determined quantitatively by AlphaScreen detection after the addition of detection reagents anti-H3K36me1 antibody, AlphaScreen® Streptavidin-coated Donor beads, and AlphaScreen® Protein A Acceptor beads in 50 mM HEPES, pH7.3, 10 mM NaCl, 0.005% Brij35, 5 mM EDTA, 2 mg/ml BSA to final 10 μg/ml beads.The assay reaction was initiated by the following: 3 μl of the mixture of 90 nM H3K36me2-biotin labeled peptide and 0.6 μM alpha-ketoglutaric acid with 3 μl of 11-point serial diluted inhibitor in 3% DMSO are added to each well of 384 well Proxiplate (Perkin Elmer), followed by the addition of 3 μl of 0.45 nM FBXL11 to initiate the reaction. The reaction mixture is incubated at room temperature for 1 hour, and terminated by the addition of 3 μl of appropriate dilution of anti H3K36me1 antibody in 50 mM HEPES, pH7.3, 10 mM NaCl, 0.005% Brij35, 5 mM EDTA, 2 mg/ml BSA. Plates will then incubated at room temperature for 40 minutes, followed by addition of 3 ul of 50 μg/ml AlphaScreen® Streptavidin-coated Donor beads and AlphaScreen® Protein A Acceptor beads in 50 mM HEPES, pH7.3, 10 mM NaCl, 0.005% Brij35, 5 mM EDTA, 2 mg/ml BSA. Plates will then be read by EnVision Multilabel Reader in AlphaScreen mode after minimum 2 hour incubation at room temperature. The AlphaScreen signal for each well is used to determine inhibition constant (IC50).

| IC50 | Structure (SMILES) |
| --- | --- |
| in the range around 550 nM | Clc1cccc(-n2cnc(-c3cc4[nH]nnc4cn3)c2)c1 |
| in the range around 550 nM | CCOc1cc(-c2c(-c3cc(-c4c[nH]nn4)ccn3)ncn2C)ccc1F |
| in the range around 550 nM | Clc1ccccc1Cn1cnc(-c2cc(-c3c[nH]nn3)ccn2)c1 |

assay: PHF8 Assay: The ability of test compounds to inhibit the activity of PHF8 was determined in 384-well plate format under the following reaction conditions: 3 nM PHF8, 200 nM H3K9me1-biotin labeled peptide (Anaspec cat #64358), 0.5 μM alpha-ketoglutaric acid in assay buffer of 50 mM HEPES, pH7.3, 0.005% Brij35, 0.5 mM TCEP, 0.2 mg/ml BSA, 50 μM sodium L-ascorbate, and 5 μM ammonium iron(II) sulfate. Reaction product was determined quantitatively by TR-FRET after the addition of detection reagent Phycolink Streptavidin-allophycocyanin (Prozyme) and Europium-anti-unmodified-histone H3 lysine 9/lysine27 (H3K9/K27) antibody (PerkinElmer) in the presence of 5 mM EDTA in LANCE detection buffer (PerkinElmer) at a final concentration of 25 nM and 0.5 nM, respectively.The assay reaction was initiated by the following: 2 μl of the mixture of 600 nM H3K9me1-biotin labeled peptide and 1.5 μM alpha-ketoglutaric acid with 2 μl of 11-point serial diluted inhibitor in 3% DMSO were added to each well of the plate, followed by the addition of 2 μl of 9 nM PHF8 to initiate the reaction. The reaction mixture was incubated at room temperature for 15 minutes, and terminated by the addition of 6 μl of 5 mM EDTA in LANCE detection buffer containing 50 nM Phycolink Streptavidin-allophycocyanin and 1 nM Europium-anti-unmodified H3K9/K27 antibody. Plates were read by EnVision Multilabel Reader in TR-FRET mode (excitation at 320 nm, emission at 615 nm and 665 nm) after 1 hour incubation at room temperature. A ratio was calculated (665/615) for each well and fitted to determine inhibition constant (IC50).

| IC50 | Structure (SMILES) |
| --- | --- |
| in the range around 5500 nM | Cn1cnc(-c2cc(-c3nn[nH]c3F)ccn2)c1-c1ccc(F)cc1OCC1CC1 |
| in the range around 550 nM | N#Cc1[nH]nnc1-c1ccnc(-c2cn(CCc3cccc4ccccc34)cn2)c1 |
| in the range around 5500 nM | Clc1ccc(-n2cnc(-c3cc4[nH]nnc4cn3)c2)cc1 |
| in the range around 550 nM | FC(F)(F)COc1ccccc1CCn1cnc(-c2cc(-c3c[nH]nn3)ccn2)c1 |
| in the range around 550 nM | N#Cc1[nH]nnc1-c1ccnc(-c2cn(CC3CCCc4ccccc43)cn2)c1 (stereo not drawn) |
| in the range around 550 nM | COc1ccccc1CCn1cnc(-c2cc(-c3c[nH]nn3)ccn2)c1 |
| in the range around 5500 nM | Clc1ccccc1-n1cnc(-c2cc3[nH]nnc3cn2)c1 |
| in the range around 5500 nM | Clc1ccc(Cn2cnc(-c3cc4[nH]nnc4cn3)c2)cc1 |
| in the range around 5500 nM | Cn1cnc(-c2cc(-c3c[nH]nn3)ccn2)c1-c1ccc(F)cc1OCC1CC1 |
| in the range around 550 nM | c1ccc2c(c1)CCCC2Cn1cnc(-c2cc(-c3c[nH]nn3)ccn2)c1 (stereo not drawn) |
| in the range around 5500 nM | Clc1ccc(Cn2cnc(-c3cc4[nH]nnc4cn3)c2)cc1Cl |
| in the range around 5500 nM | Clc1ccccc1Cn1cnc(-c2cc3[nH]nnc3cn2)c1 |
| in the range around 550 nM | Cn1cnc(-c2cc(-c3c[nH]nn3)ccn2)c1-c1ccc(F)cc1 |
| in the range around 550 nM | COc1cc(-c2c(-c3cc(-c4c[nH]nn4)ccn3)ncn2C)ccc1F |
| in the range around 550 nM | c1ccc2c(CCn3cnc(-c4cc(-c5c[nH]nn5)ccn4)c3)cccc2c1 |
| in the range around 5500 nM | c1nc(-c2cn(CC3CC3)cn2)cc2[nH]nnc12 |
| in the range around 5500 nM | Clc1cccc(-n2cnc(-c3cc4[nH]nnc4cn3)c2)c1 |
| in the range around 550 nM | COc1cccc(Cn2cnc(-c3cc(-c4c[nH]nn4)ccn3)c2)c1F |
| in the range around 550 nM | FC(F)(F)c1ccccc1CCn1cnc(-c2cc(-c3c[nH]nn3)ccn2)c1 |
| in the range around 550 nM | CC(c1ccccc1)n1cnc(-c2cc(-c3c[nH]nn3)ccn2)c1 (stereo not drawn) |
| in the range around 5500 nM | Cn1cnc(-c2cc3[nH]nnc3cn2)c1-c1ccc(F)cc1 |
| in the range around 550 nM | Fc1[nH]nnc1-c1ccnc(-c2cn(CCc3cccc4ccccc34)cn2)c1 |
| in the range around 550 nM | c1ccc(Cn2cnc(-c3cc4[nH]nnc4cn3)c2)cc1 |

| IC50 | Structure (SMILES) |
| --- | --- |
| in the range around 550 nM | CC(C)(Cn1cnc(-c2cc(-c3c[nH]nn3)ccn2)c1)c1ccccc1Cl |
| in the range around 550 nM | FC(F)(F)c1cccc(Cn2cnc(-c3cc(-c4c[nH]nn4)ccn3)c2)c1Cl |
| in the range around 5500 nM | CCOc1cc(-c2c(-c3cc(-c4c[nH]nn4)ccn3)ncn2C)ccc1F |
| in the range around 550 nM | Clc1cccc(Cn2cnc(-c3cc(-c4c[nH]nn4)ccn3)c2)c1Cl |
| in the range around 550 nM | Fc1[nH]nnc1-c1ccnc(-c2cn(Cc3cccc(Cl)c3Cl)cn2)c1 |
| in the range around 5500 nM | Fc1c(Cn2cnc(-c3cc(-c4c[nH]nn4)ccn3)c2)cccc1OC(F)(F)F |
| in the range around 5500 nM | Clc1[nH]nnc1-c1ccnc(-c2cn(CCc3cccc4ccccc34)cn2)c1 |
| in the range around 550 nM | Clc1ccccc1Cn1cnc(-c2cc(-c3cn[nH]n3)ccn2)c1Br |
| in the range around 5500 nM | CC(Cc1ccccc1)n1cnc(-c2cc(-c3c[nH]nn3)ccn2)c1 (stereo not drawn) |
| in the range around 550 nM | FC(F)(F)Oc1ccccc1CCn1cnc(-c2cc(-c3c[nH]nn3)ccn2)c1 |
| in the range around 5500 nM | c1ccc(-c2ccccc2CCn2cnc(-c3cc(-c4c[nH]nn4)ccn3)c2)cc1 |
| in the range around 550 nM | Clc1cccc(Cn2cnc(-c3cc(-c4nn[nH]c4I)ccn3)c2)c1Cl |
| in the range around 550 nM | c1ccc(OCC2CC2)c(CCn2cnc(-c3cc(-c4c[nH]nn4)ccn3)c2)c1 |
| in the range around 5500 nM | Clc1cccc(Cn2cnc(-c3cc4[nH]nnc4cn3)c2)c1 |
| in the range around 5500 nM | c1ccc(Oc2ccccc2CCn2cnc(-c3cc(-c4c[nH]nn4)ccn3)c2)cc1 |
| in the range around 550 nM | Cc1cccc(Cn2cnc(-c3cc(-c4c[nH]nn4)ccn3)c2)c1F |
| in the range around 5500 nM | c1ccc(COc2ccccc2CCn2cnc(-c3cc(-c4c[nH]nn4)ccn3)c2)cc1 |
| in the range around 550 nM | CCOc1ccccc1CCn1cnc(-c2cc(-c3c[nH]nn3)ccn2)c1 |
| in the range around 5500 nM | Clc1cc(Cl)cc(-n2cnc(-c3cc4[nH]nnc4cn3)c2)c1 |
| in the range around 550 nM | Clc1ccccc1Cn1cnc(-c2cc(-c3c[nH]nn3)ccn2)c1 |
| in the range around 5500 nM | N#Cc1[nH]nnc1-c1ccnc(-c2cn(Cc3ccccc3Cl)cn2)c1 |
| in the range around 5500 nM | N#Cc1[nH]nnc1-c1ccnc(-c2cn(Cc3cccc(Cl)c3Cl)cn2)c1 |
